According to ChEMBL document CHEMBL4673399, “Sigma-1 and Sigma-2 Receptor Modulators as Potential Therapeutics for Alzheimer's Disease” (ACS Med Chem Lett, 2021):

What was measured:
[1] = molecular target: Sigma intracellular receptor 2 (Homo sapiens, UniProt Q5BJF2); test: Binding affinity to sigma 2 receptor (unknown origin)
[2] = molecular target: Sigma non-opioid intracellular receptor 1 (Homo sapiens, UniProt Q99720); test: Binding affinity to sigma 1 receptor (unknown origin)
Sigma non-opioid intracellular receptor 1, sequence (Q99720 whole entry): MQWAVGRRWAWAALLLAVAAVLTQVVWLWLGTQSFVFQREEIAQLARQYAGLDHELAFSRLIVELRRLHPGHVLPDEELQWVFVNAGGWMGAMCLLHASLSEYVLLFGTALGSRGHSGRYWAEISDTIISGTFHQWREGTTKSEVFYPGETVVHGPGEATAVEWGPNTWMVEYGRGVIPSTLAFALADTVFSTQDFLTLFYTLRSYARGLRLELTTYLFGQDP

Sigma intracellular receptor 2, sequence (Q5BJF2 whole entry): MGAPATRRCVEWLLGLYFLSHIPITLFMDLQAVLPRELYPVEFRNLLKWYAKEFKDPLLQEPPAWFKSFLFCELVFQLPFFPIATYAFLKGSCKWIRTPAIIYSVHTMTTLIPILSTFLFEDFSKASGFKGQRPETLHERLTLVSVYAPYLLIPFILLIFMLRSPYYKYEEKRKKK

**Q.** How did the Ki [1] turn out when `N#Cc1ccc(CCNC2CCc3nn4c(c3C2)C(=O)NCCC4)cc1` (stereo not given) was run?
**A.** The Ki was less than 1 µM.

**Q.** And the Ki [2]?
**A.** Its Ki is 1 µM.

**Q.** With `CN1CCn2nc3c(c2C1=O)CC(NCc1ccc(F)cc1)CC3` (stereo not given) as the compound, how does the Ki [1] read?
**A.** The Ki was 1 µM.

**Q.** And the Ki [2]?
**A.** The Ki was 1 µM.

**Q.** For `O=C(c1nn(-c2ccccc2)c2c1CC(NCCc1ncc[nH]1)CC2)N1CCCCC1` (stereo not given), which Ki [1] is on record?
**A.** The Ki was less than 1 µM.

**Q.** What about the Ki [2] of the same compound?
**A.** Its Ki is 1 µM.

**Q.** Which Ki [1] does the source give for `CCCn1nc(C(=O)Nc2cccc(OC)c2)c2c1CCC(NCCc1ccncc1)C2` (stereo not given) here?
**A.** The Ki was less than 1 µM.

**Q.** And the Ki [2]?
**A.** The Ki was 1 µM.

**Q.** Which Ki [1] does the source give for `N#Cc1ccc(CCNC2CCc3c(c(C(=O)N4CCCCC4)nn3-c3ccccc3)C2)cc1` (stereo not given) here?
**A.** The Ki was less than 1 µM.

**Q.** What about the Ki [2] of the same compound?
**A.** Its Ki is less than 1 µM.

**Q.** With `O=C(c1nn(-c2ccccc2)c2c1CC(N1CCc3ccccc3C1)CC2)N1CCCCC1` (stereo not given) as the compound, how does the Ki [1] read?
**A.** Its Ki is 1 µM.

**Q.** What about the Ki [2] of the same compound?
**A.** The Ki was 1 µM.

**Q.** For `CCCn1nc(C(=O)N2CCCCC2)c2c1CCN(CCc1cccc(C(F)(F)F)c1)C2`, which Ki [1] is on record?
**A.** The Ki was less than 1 µM.

**Q.** What about the Ki [2] of the same compound?
**A.** Its Ki is 1 µM.

**Q.** `O=C(c1nn(-c2ccccc2)c2c1CC(NCC1CCOCC1)CC2)N1CCCCC1` (stereo not given) was tested. Which Ki [1] did it give?
**A.** Its Ki is less than 1 µM.

**Q.** And the Ki [2]?
**A.** Its Ki is less than 1 µM.

**Q.** `CCCn1nc(C(=O)N2CCCCC2)c2c1CCN(CCc1ccc(F)cc1)C2` was tested. Which Ki [1] did it give?
**A.** Its Ki is 1 µM.

**Q.** And the Ki [2]?
**A.** Its Ki is less than 1 µM.

**Q.** With `O=C1NCCn2nc3c(c21)CC(NCCc1ccc2c(c1)OCO2)CC3` (stereo not given) as the compound, how does the Ki [1] read?
**A.** Its Ki is 1 µM.

**Q.** And the Ki [2]?
**A.** Its Ki is 1 µM.
